In the oligonucleotide strings, read from the 5' end, every base follows the letter of its sugar. An asterisk marks phosphorothioate; unmarked linkages are phosphodiester. Other units and linkages are bracketed, terminal groups are in braces. A string of capitals states the bases alone. e = 2'-O-(2-methoxyethyl) (MOE); [5mC] = 5-methylcytosine; d = 2'-deoxy (DNA)

A short description of one series: Cynomolgus monkeys: body and organ weights (Example 29). The conditions noted are these: escalating doses 5, 10, 25 mg/kg s.c., day 29. The format is in vivo. On the procedure: (§1) Groups, each consisting of two male and three female monkeys, were injected subcutaneously with ISIS 416838, ISIS 416850, ISIS 416858, ISIS 416864, or ISIS 417002 in escalating doses. Antisense oligonucleotide was administered to the monkeys at 5 mg/kg three times per a week for week 1; 5 mg/kg twice per week for weeks 2 and 3; 10 mg/kg three times per week for week 4; 10 mg/kg twice per week for weeks 5 and 6; 25 mg/kg three times per week for week 7; and 25 mg/kg twice per week for weeks 8, 9, 10, 11, and 12. One control group, consisting of two male and three female monkeys, was injected subcutaneously with PBS according to the same dosing regimen. An additional experimental group, consisting of two male and three female monkeys, was injected subcutaneously with ISIS 416850 in a chronic, lower dose regimen. Antisense oligonucleotide was administered to the monkeys at 5 mg/kg three times per week for week 1; 5 mg/kg twice per week for week 2 and 3; 10 mg/kg three times per week for week 4; and 10 mg/kg twice per week for weeks 5 to 12. Body weights were measured weekly. Blood samples were collected 14 days and 5 days before the start of treatment and subsequently once per week for Factor XI protein activity analysis in plasma and measurement of various hematologic factors. On day 85, the monkeys were euthanized by exsanguination while under deep anesthesia, and organs harvested for further analysis.
Body weights were taken once weekly throughout the dosing regimen. […] Organ weights were taken after the animals were euthanized and livers, kidneys and spleens were harvested and weighed. […] The ISIS oligonucleotide, ISIS 416850, given with the chronic dose regimen is distinguished from the other oligonucleotides with an asterisk (*).
With “ISIS 416838: gapmer of Table 6 (antisense eG*e[5mC]*eA*eA*e[5mC]*d[5mC]*dG*dG*dG*dA*dT*dG*dA*dT*dG*eA*eG*eT*eG*e[5mC])”, the Body weight came to 2689 g.

Staying with this series, now noted: escalating doses 5, 10, 25 mg/kg s.c., day 36.
As to “ISIS 416838: gapmer of Table 6 (antisense eG*e[5mC]*eA*eA*e[5mC]*d[5mC]*dG*dG*dG*dA*dT*dG*dA*dT*dG*eA*eG*eT*eG*e[5mC])”, the Body weight came to 2708 g.

Staying with this series, now noted: escalating doses 5, 10, 25 mg/kg s.c., day 43.
“ISIS 416838: gapmer of Table 6 (antisense eG*e[5mC]*eA*eA*e[5mC]*d[5mC]*dG*dG*dG*dA*dT*dG*dA*dT*dG*eA*eG*eT*eG*e[5mC])” yielded a Body weight of 2700 g.

Staying with this series, now noted: escalating doses 5, 10, 25 mg/kg s.c., day 50.
In the case of “ISIS 416838: gapmer of Table 6 (antisense eG*e[5mC]*eA*eA*e[5mC]*d[5mC]*dG*dG*dG*dA*dT*dG*dA*dT*dG*eA*eG*eT*eG*e[5mC])”, the Body weight is reported as 2731 g.

Staying with this series, now noted: escalating doses 5, 10, 25 mg/kg s.c., day 57.
Substance “ISIS 416838: gapmer of Table 6 (antisense eG*e[5mC]*eA*eA*e[5mC]*d[5mC]*dG*dG*dG*dA*dT*dG*dA*dT*dG*eA*eG*eT*eG*e[5mC])” gave a Body weight of 2737 g.

Staying with this series, now noted: escalating doses 5, 10, 25 mg/kg s.c., day 64.
For “ISIS 416838: gapmer of Table 6 (antisense eG*e[5mC]*eA*eA*e[5mC]*d[5mC]*dG*dG*dG*dA*dT*dG*dA*dT*dG*eA*eG*eT*eG*e[5mC])”, the Body weight came to 2746 g.

Still in this series, the particulars now being: escalating doses 5, 10, 25 mg/kg s.c., day 71.
As to “ISIS 416838: gapmer of Table 6 (antisense eG*e[5mC]*eA*eA*e[5mC]*d[5mC]*dG*dG*dG*dA*dT*dG*dA*dT*dG*eA*eG*eT*eG*e[5mC])”, the Body weight was 2869 g.

The series is the same for the next values; noted with them: escalating doses 5, 10, 25 mg/kg s.c., day 78.
On to “ISIS 416838: gapmer of Table 6 (antisense eG*e[5mC]*eA*eA*e[5mC]*d[5mC]*dG*dG*dG*dA*dT*dG*dA*dT*dG*eA*eG*eT*eG*e[5mC])”, for which the Body weight turned out to be 2766 g.

A further series in a line: Cynomolgus monkeys: hematology assays (Example 29). The format is in vivo. Particulars: day 8. On the procedure: as §1
The ISIS oligonucleotide, ISIS 416850, given with the chronic dose regimen is distinguished from the other oligonucleotides with an asterisk (*).
Substance “ISIS 416838: gapmer of Table 6 (antisense eG*e[5mC]*eA*eA*e[5mC]*d[5mC]*dG*dG*dG*dA*dT*dG*dA*dT*dG*eA*eG*eT*eG*e[5mC])” displayed a platelet count of 387000 µL⁻¹.

Still in this series, the particulars now being: day 15.
As to “ISIS 416838: gapmer of Table 6 (antisense eG*e[5mC]*eA*eA*e[5mC]*d[5mC]*dG*dG*dG*dA*dT*dG*dA*dT*dG*eA*eG*eT*eG*e[5mC])”, the platelet count worked out at 387000 µL⁻¹.

The series is the same for the next values; noted with them: day 22.
“ISIS 416838: gapmer of Table 6 (antisense eG*e[5mC]*eA*eA*e[5mC]*d[5mC]*dG*dG*dG*dA*dT*dG*dA*dT*dG*eA*eG*eT*eG*e[5mC])” displayed a platelet count of 319000 µL⁻¹.

The same series, now with this note: day 29.
In the case of “ISIS 416838: gapmer of Table 6 (antisense eG*e[5mC]*eA*eA*e[5mC]*d[5mC]*dG*dG*dG*dA*dT*dG*dA*dT*dG*eA*eG*eT*eG*e[5mC])”, the platelet count stood at 337000 µL⁻¹.

Staying with this series, now noted: day 36.
With “ISIS 416838: gapmer of Table 6 (antisense eG*e[5mC]*eA*eA*e[5mC]*d[5mC]*dG*dG*dG*dA*dT*dG*dA*dT*dG*eA*eG*eT*eG*e[5mC])”, the platelet count is 370000 µL⁻¹.

Still in this series, the particulars now being: day 43.
Regarding “ISIS 416838: gapmer of Table 6 (antisense eG*e[5mC]*eA*eA*e[5mC]*d[5mC]*dG*dG*dG*dA*dT*dG*dA*dT*dG*eA*eG*eT*eG*e[5mC])”, the platelet count is 365000 µL⁻¹.

Staying with this series, now noted: day 50.
On to “ISIS 416838: gapmer of Table 6 (antisense eG*e[5mC]*eA*eA*e[5mC]*d[5mC]*dG*dG*dG*dA*dT*dG*dA*dT*dG*eA*eG*eT*eG*e[5mC])”, for which the platelet count was 372000 µL⁻¹.

Staying with this series, now noted: day 57.
For the substance “ISIS 416838: gapmer of Table 6 (antisense eG*e[5mC]*eA*eA*e[5mC]*d[5mC]*dG*dG*dG*dA*dT*dG*dA*dT*dG*eA*eG*eT*eG*e[5mC])”, the platelet count turned out to be 371000 µL⁻¹.

Staying with this series, now noted: day 64.
Consider “ISIS 416838: gapmer of Table 6 (antisense eG*e[5mC]*eA*eA*e[5mC]*d[5mC]*dG*dG*dG*dA*dT*dG*dA*dT*dG*eA*eG*eT*eG*e[5mC])”, for which the platelet count worked out at 358000 µL⁻¹.

Staying with this series, now noted: day 71.
On to “ISIS 416838: gapmer of Table 6 (antisense eG*e[5mC]*eA*eA*e[5mC]*d[5mC]*dG*dG*dG*dA*dT*dG*dA*dT*dG*eA*eG*eT*eG*e[5mC])”, for which the platelet count came out at 365000 µL⁻¹.

The series is the same for the next values; noted with them: day 78.
Substance “ISIS 416838: gapmer of Table 6 (antisense eG*e[5mC]*eA*eA*e[5mC]*d[5mC]*dG*dG*dG*dA*dT*dG*dA*dT*dG*eA*eG*eT*eG*e[5mC])” displayed a platelet count of 348000 µL⁻¹.

The same series, now with this note: day 85.
Substance “ISIS 416838: gapmer of Table 6 (antisense eG*e[5mC]*eA*eA*e[5mC]*d[5mC]*dG*dG*dG*dA*dT*dG*dA*dT*dG*eA*eG*eT*eG*e[5mC])” showed a platelet count of 344000 µL⁻¹.

The series is the same for the next values; noted with them: day −5.
As for “ISIS 416838: gapmer of Table 6 (antisense eG*e[5mC]*eA*eA*e[5mC]*d[5mC]*dG*dG*dG*dA*dT*dG*dA*dT*dG*eA*eG*eT*eG*e[5mC])”, the platelet count worked out at 425000 µL⁻¹.

The same series, now with this note: day −14.
Turning to “ISIS 416838: gapmer of Table 6 (antisense eG*e[5mC]*eA*eA*e[5mC]*d[5mC]*dG*dG*dG*dA*dT*dG*dA*dT*dG*eA*eG*eT*eG*e[5mC])”, the platelet count was found to be 377000 µL⁻¹.
